Test results: patent US6902903B1, “Helicobacter pylori diagnostics” (Chiron Corporation, priority 1996, dated 2005)
Like-named read-outs stand apart in the source and are kept apart here.

B1: CagA: Recombinant truncated CagA of 268 amino acids, 29.2 kDa, Glu-748 through Glu-1015, H. pylori strain Chetx-1 (protein, listed as Helicobacter pylori)
chain: MEFKNGKNKDFSKVTQAKSDLENSIKDVIFNQKITDKVDDLNQAVSVAKATGDFSRVEQALADLKNFSKEQLAQQAQKNESLNAGKKSEIYQSVKNGVNGTLVGNGLSQAEATTLSKNFSDIKKELNAKLFGNFNNNNNNGLKNSTEPIYAKVNKKKTGQVASPEEPIYTQVAKKVNAKIDRLNQIASGLGGVGKAAGFPLKRHDKVDDLSKVGRSVSPEPIYATIDDLGGPFPLKRHDKVDDLSKVGLSRNQELAQKIDNLNQAVSE

How the values were obtained:
H. pylori infection [1] = assay: Antibiotic therapy of H. pylori infection, response monitored by SIA; type: in vivo, Helicobacter pylori; details: individuals undergoing antibiotic regimen, determined with the SIA
Method: For the immunoblot assay, strips were processed in a batch fashion with 30 strips per batch. All steps were performed at room temperature. Each strip was numbered and then placed in a separate tube to which was added 1 ml of diluent (phosphate-buffered saline (PBS) with bovine protein stabilizers and detergents, 0.1% sodium azide and 0.05% gentamicin sulfate as preservatives) and 30 μl of a serum sample from an individual known to be infected with H. pylori Type I, suspected of being infected with H. pylori Type I or a control subject, was applied. The tubes were rocked gently for 4 h, the solution removed by aspiration, and 1 ml of fresh diluent was added to each tube. The tubes were rocked for 30 minutes, the solution removed by aspiration and 1 ml of wash buffer made from wash buffer concentrate (50×) (phosphate-buffered detergent solution with 0.01% thimerosal as a preservative) was added to each tube. The contents of each tube were emptied into a single wash vessel and the strips were washed by swirling for 20 seconds. The wash buffer was decanted and 30 ml of fresh buffer added and the process repeated. […] Strips were then read within 3 h of drying. […] The lysate and VacA and CagA bands are then scored from 0 to 4+according to how their band intensity compares to that of the IgG control bands. […]

H. pylori infection [2] = details: individuals undergoing antibiotic regimen for H. pylori infection; cited from earlier work
[3] = tested on: H. pylori antibodies in serum sample; assay: H. pylori strip immunoblot assay (SIA), band reactivity of immobilized antigens with serum samples; type: binding, human; set-up: key: band intensity 0 to 4+ vs IgG controls (low IgG = 1+, high = 3+)
Method: A. An SIA was done as follows. An H. pylori extract containing a mixture of antigens including type-common antigens was obtained from Bioseed, Inc., Hillsborough, Calif. Briefly, the extract was prepared from an H. pylori bacterium obtained from the American Type Culture Collection (ATCC) having an ATCC strain designation of ATCC 43504. The extract was prepared using detergent extraction and sonication.
The VacA and CagA type-specific antigens, described in Examples 1 and 2, respectively, were applied in discrete bands to nitrocellulose strips at concentrations of 1-2 μg/ml. The lysate including the type-common antigens was coated as another discrete band at a concentration of 0.5-1 μg/ml onto the same nitrocellulose strips. As internal controls, additional bands contained purified human IgG at a low (100-185 ng/ml) and high (500-925 ng/ml) concentration. Other strips were coated with the antigens and lysate as described above, however, on these strips, the lysate was first enhanced with the VacA and CagA antigens added to the lysate at a concentration of 0.5-1 μg/ml (VacA) and 0.5-μg/ml (CagA). FIG. 1 is a diagram of a nitrocellulose strip with the antigens as described above.
For the immunoblot assay, strips were processed in a batch fashion with 30 strips per batch. All steps were performed at room temperature. Each strip was numbered and then placed in a separate tube to which was added 1 ml of diluent (phosphate-buffered saline (PBS) with bovine protein stabilizers and detergents, 0.1% sodium azide and 0.05% gentamicin sulfate as preservatives) and 30 μl of a serum sample from an individual known to be infected with H. pylori Type I, suspected of being infected with H. pylori Type I or a control subject, was applied. The tubes were rocked gently for 4 h, the solution removed by aspiration, and 1 ml of fresh diluent was added to each tube. The tubes were rocked for 30 minutes, the solution removed by aspiration and 1 ml of wash buffer made from wash buffer concentrate (50×) (phosphate-buffered detergent solution with 0.01% thimerosal as a preservative) was added to each tube. The contents of each tube were emptied into a single wash vessel and the strips were washed by swirling for 20 seconds. The wash buffer was decanted and 30 ml of fresh buffer added and the process repeated. Residual solution was removed by aspiration and 20 ml of conjugate solution (peroxidase-labeled goat anti-human IgG (heavy and light chains), with bovine protein stabilizers, containing 0.01% thimerosal as a preservative) was added. The vessel was rotated at 110 rpm for 10 minutes, the conjugate solution was decanted and the wash step was repeated three times. Residual solution was again removed by aspiration and 20 ml of substrate/developer (4-chloro-1-napthol in methanol/phosphate-buffered hydrogen peroxide) added, followed by rotation for 15-20 minutes at 110 rpm. The solution was decanted and the strips were washed twice in distilled water. Developed strips were placed face up on absorbent paper and allowed to dry for 30 minutes in the dark. Strips were then read within 3 h of drying. The intensity of the color of the H. pylori antigen bands were assigned values ranging from −(0) to 4+using the following algorithm. The low IgG band is assigned a value of 1+, the high IgG band is assigned a value of 3+. The lysate and VacA and CagA bands are then scored from 0 to 4+according to how their band intensity compares to that of the IgG control bands.
Samples with any of the H. pylori antigen bands scoring 1+ or greater to the lysate band are considered to be positive for H. pylori infection. Reactivity of 1+ or greater to the lysate band, in addition to reactivity of 1+ or greater to the CagA and/or VacA band, is considered positive for H. pylori Type I infection. Samples showing no reactivity of 1+ or greater to any bands are considered negative. […]

antibodies to CagA = details: cited from earlier work
[4] = Responder to antibiotic therapy, Prebleed

| Molecule | % Responders by SIA (H. pylori infection [1]) [%] | Responders (responders/tested) by SIA (H. pylori infection [1]) | Response Rate Reported (H. pylori infection [2]) [%] | Band reactivity (intensity value), therapy monitoring ([3]; Non-Responder, 8 M) | Band reactivity (intensity value), therapy monitoring ([3]; Non-Responder, 16 M) | Band reactivity (intensity value), therapy monitoring ([3]; Non-Responder, Prebleed) | Band reactivity (intensity value), therapy monitoring [3, 4] | Band reactivity (intensity value), therapy monitoring ([3]; Responder, 1 M) | Band reactivity (intensity value), therapy monitoring ([3]; Responder, 3 M) | Band reactivity (intensity value), therapy monitoring ([3]; Responder, 6 M) | Band reactivity (intensity value), therapy monitoring ([3]; Responder, 9 M) | Band reactivity (intensity value), therapy monitoring ([3]; Responder, 12 M) | patients CagA seropositive (antibodies to CagA; patients suffering from gastric ulcer) | patients CagA seropositive (antibodies to CagA; patients with duodenal ulcer or duodenitis) |
| --- | --- | --- | --- | --- | --- | --- | --- | --- | --- | --- | --- | --- | --- | --- |
| Cc1ncc([N+](=O)[O-])n1CCO [Single, Metronidazole] | 20 | 1/5 | 19 |  |  |  |  |  |  |  |  |  |  |  |
| VacA: Recombinant 71.2 kDa fusion: 154 aa human SOD, five aa linker, VacA Gly-311 through Ile-819 of H. pylori CCUG17874 |  |  |  | 2.49 | 2.10 | 2.54 | 0.31 | 0.26 | 0.33 | 0.29 | 0.21 | 0.18 |  |  |
| B1 |  |  |  | 0.99 | 0.90 | 1.31 | 1.92 | 1.69 | 1.09 | 0.90 | 0.73 | 0.43 | more than 70% | more than 95% |
